Test [1] relates to human T-cells with allogenic immature dendritic cells. The test is described as follows: Allogenic mixed lymphocyte reaction (MLR), T-cell proliferation. The format is cell-based. Conditions: 120 h, 5 days, baseline T-cells without Cbl-b inhibitor, read-out: Proliferation, fold change over baseline. As to the method: Cbl-b inhibitor effects on primary human T-cells were also evaluated in the context of an allogenic mixed lymphocyte reaction (MLR). Allogenic immature dendritic cells were generated under the following conditions. Peripheral blood mononuclear cells (PBMC) were obtained either: 1) by using Ficoll-Paque™ (GE Healthcare) for separation of peripheral blood hematopoietic cells from huffy coats of healthy human donors; or 2) directly from LeukoPak donations. […] Monocytes were cultured with 30 ng/mL of recombinant human GM-CSF and 20 ng/mL of recombinant human IL-4 for seven days to generate immature dendritic cells. Monocytes and T-cells were either isolated fresh from peripheral blood or thawed from frozen stocks. Human T-cells were isolated, labeled with CFSE and incubated with inhibitors as described above. […] Proliferation of the T-cells was evaluated by flow cytometry.
Readouts for the allogenic mixed lymphocyte reaction were reported as fold change over baseline. Baseline for this study was the measurement obtained from total human T-cells stimulated with allogenic immature dendritic cells, wherein the T-cells were not incubated with a Cbl-b inhibitor (Table 5). Increases in proliferation greater than 2-fold over baseline were considered a positive response (Table 5).

In a further test the test system is primary human NK cells. Kind of test: NK cell activation assessed by cytokine secretion (coculture with K562 NucRed target cells). The format is cell-based. Conditions: for fold induction at 0.625 µM: 0.625 μM compound; for fold induction at 2.5 µM: 2.5 μM compound. Summed up: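 Read-out is cytokine secretion (IFNγ, TNFα, MIP1β; ELISA or Luminex) as fold over coculture without inhibitor, >2.0-fold taken as positive. Donor NK cells, IL-2 primed (60 ng/mL) overnight, received compound 1 h ahead (e.g. 0.1–10 μM, DMSO <0.1%) and were mixed 6 h with K562 NucRed targets at e.g. 5:1, 1:1, 1:5.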

Another test has as its system T-cells. Kind of test: In vivo activity: CD25 expression on CD4+ or CD8+ T-cells of mice stimulated with anti-CD3 antibody. Particulars: 2 μg anti-CD3 antibody, 24 hours. Summed up:
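C57BL/6 or BALB/c mice dosed with inhibitor (IV, IP, SC or PO, e.g. BID or TID), then stimulated with 2 μg anti-CD3 antibody. Plasma IL-2, IFNγ, TNFα at 8 h and CD25 on CD4+/CD8+ T-cells by flow cytometry at 24 h; fold change over vehicle plus anti-CD3, binned A–E.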

The mark [2] stands for this setting: K562, NK cells cocultured with K562 NucRed, 1:1 E/T, read-out: IFNγ secretion, fold change over baseline.
[3] abbreviates: K562, NK cells cocultured with K562 NucRed, 1:1 E/T, read-out: TNFα secretion, fold change over baseline.
Where [4] appears, read: K562, NK cells cocultured with K562 NucRed, 1:1 E/T, 10 μM compound, read-out: IFNγ secretion, fold change over baseline.
Setting [5] is: K562, NK cells cocultured with K562 NucRed, 1:1 E/T, 10 μM compound, read-out: TNFα secretion, fold change over baseline.
Setting [6] is: K562, 1:1 E/T, read-out: IFNγ secretion.
Where [7] appears, read: K562, 1:1 E/T, read-out: MIP1β secretion.
Setting [8] is: K562, 1:1 E/T, read-out: TNFα secretion.
The mark [9] stands for this setting: K562, 1:1 E/T, 10 μM, read-out: IFNγ secretion.
Where [10] appears, read: K562, 1:1 E/T, 10 μM, read-out: MIP1β secretion.
[11] abbreviates: K562, 1:1 E/T, 10 μM, read-out: TNFα secretion.
Where [12] appears, read: K562, 5:1 E/T, read-out: IFNγ secretion.
Setting [13] is: K562, 5:1 E/T, read-out: MIP1β secretion.
The mark [14] stands for this setting: K562, 5:1 E/T, read-out: TNFα secretion.
[15] abbreviates: K562, 5:1 E/T, 10 μM, read-out: IFNγ secretion.
Where [16] appears, read: K562, 5:1 E/T, 10 μM, read-out: MIP1β secretion.
[17] abbreviates: K562, 5:1 E/T, 10 μM, read-out: TNFα secretion.

Read-outs that look alike come from different tables or passages of the source. Some results are limits rather than exact numbers.

In the case of `C[C@H](Cc1nncn1C)c1cccc(NC(=O)c2n[nH]c3c2CCC3)c1` [Compound 313, (R)-N-(3-(1-(4-Methyl-4H-1,2,4-triazol-3-yl)propan-2-yl)phenyl)-1,4,5,6-tetrahydrocyclopenta[c]pyrazole-3-carboxamide], the fold induction at 3 µM in test [1] was less than 2. For the same compound, the fold induction at 10 µM was less than 2 in test [1], 2.01 to 5 in the test on primary human NK cells (setting [4]) and 1.01 to 2 with primary human NK cells (setting [5]). Besides, the fold induction at 0.625 µM in the test with primary human NK cells (setting [2]) is less than 1; in the test with primary human NK cells (setting [3]), 1.01 to 2. For the same compound, the fold induction at 2.5 µM in the test with primary human NK cells (setting [2]) and in the test with primary human NK cells (setting [3]) was 1.01 to 2 throughout.

Turning to `Cc1cc(C(=O)Nc2cccc([C@@H](C)Cc3nncn3C)c2)nc(C2CC2)n1` [Compound 325, (S)-2-Cyclopropyl-6-methyl-N-(3-(1-(4-methyl-4H-1,2,4-triazol-3-yl)propan-2-yl)phenyl)pyrimidine-4-carboxamide], in test [1], the fold induction at 3 µM was less than 2. Also, the fold induction at 10 µM in test [1] is less than 2; in the test with primary human NK cells (setting [4]) it was 2.01 to 5; in the test with primary human NK cells (setting [5]), 1.01 to 2. Also, the fold induction at 0.625 µM is 1.01 to 2 in the test with primary human NK cells (setting [2]) and less than 1 in the test with primary human NK cells (setting [3]). Further, the fold induction at 2.5 µM in the test with primary human NK cells (setting [2]) was 1.01 to 2; in the test with primary human NK cells (setting [3]), less than 1.

On to `Cn1cnnc1CC1(c2cccc(NC(=O)c3nc4c(C(F)(F)F)cccc4[nH]3)c2)COC1` [Compound 335, N-(3-{3-[(4-methyl-1,2,4-triazol-3-yl)methyl]oxetan-3-yl}phenyl)-4-(trifluoromethyl)-1H-1,3-benzodiazole-2-carboxamide], for which the fold induction at 3 µM in test [1] is less than 2. Also, the figures for the fold induction at 10 µM (in test [1]; with primary human NK cells (setting [4]); with primary human NK cells (setting [5])) were less than 2, 2.01 to 5 and 2.01 to 5, respectively. Besides, the fold induction at 0.625 µM with primary human NK cells (setting [2]) and in the test on primary human NK cells (setting [3]) was 1.01 to 2 in each case. The fold induction at 2.5 µM lay in the range of 2.01 to 5 with primary human NK cells (setting [2]) and 1.01 to 2 in the test with primary human NK cells (setting [3]).

In the case of `Cc1n[nH]c(C)c1-c1cc2c(c(C(F)(F)F)c1)CN(c1cccc(C3(Cc4nncn4C)COC3)c1)C2=O` [Compound 385, 6-(3,5-dimethyl-1H-pyrazol-4-yl)-2-(3-{3-[(4-methyl-4H-1,2,4-triazol-3-yl)methyl]oxetan-3-yl}phenyl)-4-(trifluoromethyl)-2,3-dihydro-1H-isoindol-1-one], the fold induction at 3 µM in test [1] is less than 2. The results for the fold induction at 10 µM (in test [1]; in the test on primary human NK cells (setting [4]); in the test on primary human NK cells (setting [5])) were less than 2, 2.01 to 5 and 1.01 to 2, respectively. In addition, the fold induction at 0.625 µM with primary human NK cells (setting [2]) was 1.01 to 2; with primary human NK cells (setting [3]), less than 1. The fold induction at 2.5 µM in the test with primary human NK cells (setting [2]) was in the range of 2.01 to 5; in the test on primary human NK cells (setting [3]), 1.01 to 2.

Take `C[C@H](Cc1nncn1C)c1cccc(N2Cc3c(cc(CN4CC(O)C4)cc3C(F)(F)F)C2=O)c1` [Compound 393, (R)-6-((3-hydroxyazetidin-1-yl)methyl)-2-(3-(1-(4-methyl-4H-1,2,4-triazol-3-yl)propan-2-yl)phenyl)-4-(trifluoromethyl)isoindolin-1-one]: the fold induction at 3 µM in test [1] is less than 2. The fold induction at 10 µM lay in the range of 2.01 to 3 in test [1], 2.01 to 5 in the test with primary human NK cells (setting [4]) and 2.01 to 5 in the test with primary human NK cells (setting [5]). Besides, the fold induction at 0.625 µM with primary human NK cells (setting [2]) and in the test with primary human NK cells (setting [3]) was 1.01 to 2 each time. The fold induction at 2.5 µM with primary human NK cells (setting [2]) and with primary human NK cells (setting [3]) was 2.01 to 5 throughout.

Turning to `C[C@H](Cc1nncn1C)c1cccc(N2Cc3c(cc(CN4CC(C)(O)C4)cc3C(F)(F)F)C2=O)c1` [Compound 397], the fold induction at 3 µM in test [1] was less than 2. Besides, the fold induction at 10 µM was 2.01 to 3 in test [1], more than 5 in the test with primary human NK cells (setting [4]) and 2.01 to 5 with primary human NK cells (setting [5]). The fold induction at 0.625 µM with primary human NK cells (setting [2]) was in the range of 2.01 to 5; with primary human NK cells (setting [3]), 1.01 to 2. The fold induction at 2.5 µM in the test with primary human NK cells (setting [2]) and in the test with primary human NK cells (setting [3]) was 2.01 to 5 in each case.

With `C[C@H](Cc1nncn1C)c1cccc(N2Cc3c(cc(CN4CC[C@](C)(O)C4)cc3C(F)(F)F)C2=O)c1` [Compound 398, 6-(((S)-3-hydroxy-3-methylpyrrolidin-1-yl)methyl)-2-(3-((R)-1-(4-methyl-4H-1,2,4-triazol-3-yl)propan-2-yl)phenyl)-4-(trifluoromethyl)isoindolin-1-one], in test [1], the fold induction at 3 µM lay in the range of 2.01 to 3. In addition, the values for the fold induction at 10 µM (in test [1]; in the test with primary human NK cells (setting [4]); in the test with primary human NK cells (setting [5])) were 2.01 to 3, more than 5 and 2.01 to 5, respectively. Also, the fold induction at 0.625 µM was 2.01 to 5 with primary human NK cells (setting [2]) and 1.01 to 2 in the test with primary human NK cells (setting [3]). In addition, the fold induction at 2.5 µM in the test on primary human NK cells (setting [2]) and in the test on primary human NK cells (setting [3]) was 2.01 to 5 each time.

As to `Cn1cnnc1C(F)(F)[C@](C)(F)c1cccc(N2Cc3c(cc(CN4CC[C@H](F)C4)cc3C(F)(F)F)C2=O)c1` [Compound 447, 6-(((S)-3-fluoropyrrolidin-1-yl)methyl)-2-(3-((R)-1,1,2-trifluoro-1-(4-methyl-4H-1,2,4-triazol-3-yl)propan-2-yl)phenyl)-4-(trifluoromethyl)isoindolin-1-one], the “CD4+ T-cell % CD25+” value in the test with T-cells (90 mpk PO BID) was “D (D indicates 1.00-1.50)”; with T-cells (135 mpk PO BID), “D (D indicates 1.00-1.50)”; in the test with T-cells (180 mpk PO BID), “C (C indicates 1.51-2.00)”. The “CD8+ T-cell % CD25+” value was “E (E indicates <1.00)” in the test on T-cells (90 mpk PO BID), “E (E indicates <1.00)” with T-cells (135 mpk PO BID) and “D (D indicates 1.00-1.50)” in the test with T-cells (180 mpk PO BID). The fold induction at 1 µM in the test with primary human NK cells (setting [6]) was 2.01 to 5; in the test on primary human NK cells (setting [7]), less than 1; with primary human NK cells (setting [8]) it was 2.01 to 5; in the test with primary human NK cells (setting [12]), more than 5; in the test with primary human NK cells (setting [13]), 1.01 to 2; with primary human NK cells (setting [14]), 2.01 to 5. Moreover, the fold induction at 10 µM in the test with primary human NK cells (setting [9]) was more than 5; in the test on primary human NK cells (setting [10]), 1.01 to 2; in the test with primary human NK cells (setting [11]), 2.01 to 5; with primary human NK cells (setting [15]), more than 5; in the test on primary human NK cells (setting [16]) it was 2.01 to 5; with primary human NK cells (setting [17]) it was more than 5.

With `Cn1cnnc1C(F)(F)[C@](C)(F)c1cccc(N2Cc3c(cc(CN4CCC(F)(F)C4)cc3C(F)(F)F)C2=O)c1` [Compound 448, (R)-6-((3,3-difluoropyrrolidin-1-yl)methyl)-2-(3-(1,1,2-trifluoro-1-(4-methyl-4H-1,2,4-triazol-3-yl)propan-2-yl)phenyl)-4-(trifluoromethyl)isoindolin-1-one], the “CD4+ T-cell % CD25+” value in the test with T-cells (90 mpk PO BID), with T-cells (135 mpk PO BID) and with T-cells (180 mpk PO BID) was “D (D indicates 1.00-1.50)” throughout. Besides, the “CD8+ T-cell % CD25+” value in the test with T-cells (90 mpk PO BID), with T-cells (135 mpk PO BID) and in the test on T-cells (180 mpk PO BID) was “E (E indicates <1.00)” in each case. Also, the fold induction at 1 µM with primary human NK cells (setting [6]), in the test on primary human NK cells (setting [7]), in the test with primary human NK cells (setting [8]), in the test with primary human NK cells (setting [12]), in the test with primary human NK cells (setting [13]) and in the test with primary human NK cells (setting [14]) was 1.01 to 2 each time. Also, the fold induction at 10 µM in the test on primary human NK cells (setting [9]) was more than 5; in the test on primary human NK cells (setting [10]) it was 2.01 to 5; in the test on primary human NK cells (setting [11]) it was 2.01 to 5; in the test on primary human NK cells (setting [15]), more than 5; in the test with primary human NK cells (setting [16]) it was 2.01 to 5; in the test on primary human NK cells (setting [17]), 2.01 to 5.

The record behind these values is US20220324835A1 (Nurix Therapeutics, Inc., priority 2018, published 2022).
